ChEMBL document CHEMBL1138625, “Synthesis and evaluation of novel phenoxypropanolamine derivatives containing acetanilides as potent and selective beta3-adrenergic receptor agonists” (Bioorg Med Chem, 2009)

Legend:
[1] = target: Beta-2 adrenergic receptor (Homo sapiens, UniProt P07550)
Description: Agonist activity at human beta2 adrenergic receptor expressed in CHO cells assessed as cAMP accumulation

[2] = target: Beta-3 adrenergic receptor (Homo sapiens) (UniProt P13945)
[3] = target: Beta-1 adrenergic receptor (Homo sapiens) (UniProt P08588); experiment: Agonist activity at human adrenergic receptor expressed in CHO cells assessed as cAMP accumulation
[4] = target: Beta-1 adrenergic receptor (Homo sapiens) (UniProt P08588); details: CHO
[5] = system: Mus musculus; experiment: Hypoglycemic activity in diabetic kk mouse assessed as reduction in plasma glucose level at 30 mg/kg, po administered once daily for 4 days by colorimetry; assay type: functional; design: scale not given: the % may be the effect or the level left
[6] = Oral bioavailability in rat; assay type: ADME, organism-based; details: in vivo

Chain of Beta-3 adrenergic receptor (Homo sapiens) (P13945 whole entry, looked up): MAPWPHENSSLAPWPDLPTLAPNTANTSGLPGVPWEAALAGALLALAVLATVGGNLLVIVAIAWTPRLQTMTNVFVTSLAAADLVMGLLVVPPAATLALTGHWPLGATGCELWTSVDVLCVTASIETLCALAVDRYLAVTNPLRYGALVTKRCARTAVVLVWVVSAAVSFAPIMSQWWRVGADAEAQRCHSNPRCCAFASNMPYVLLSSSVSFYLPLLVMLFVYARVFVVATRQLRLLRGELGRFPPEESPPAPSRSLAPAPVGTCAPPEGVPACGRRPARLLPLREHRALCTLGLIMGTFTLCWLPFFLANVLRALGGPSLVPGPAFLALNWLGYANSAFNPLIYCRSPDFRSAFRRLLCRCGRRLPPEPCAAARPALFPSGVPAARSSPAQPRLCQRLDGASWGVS
Chain of Beta-2 adrenergic receptor (P07550 whole entry): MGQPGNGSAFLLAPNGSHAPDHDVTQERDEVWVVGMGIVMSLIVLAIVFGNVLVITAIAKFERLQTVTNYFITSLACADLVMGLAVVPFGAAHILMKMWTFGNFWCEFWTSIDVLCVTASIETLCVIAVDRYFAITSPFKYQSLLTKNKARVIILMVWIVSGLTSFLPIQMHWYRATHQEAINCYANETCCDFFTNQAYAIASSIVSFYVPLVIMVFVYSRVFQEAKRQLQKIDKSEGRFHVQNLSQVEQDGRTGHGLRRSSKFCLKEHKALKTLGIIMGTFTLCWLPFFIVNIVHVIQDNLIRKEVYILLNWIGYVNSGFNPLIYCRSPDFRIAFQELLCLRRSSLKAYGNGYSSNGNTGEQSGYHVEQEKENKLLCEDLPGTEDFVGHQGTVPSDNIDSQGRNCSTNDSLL

Row | SMILES | EC50 [1] | EC50 [2] | EC50 [3] | Intrinsic activity [4] | bioavailability [6] | Activity [5]
1 | O=C(Cc1nccn1Cc1ccc2ccccc2c1)Nc1ccc(CCNC[C@H](O)COc2ccccc2)cc1 | > 100000 nM |  |  |  |  | 
2 | O=C(Cc1ccccn1)Nc1ccc(CCNC[C@H](O)COc2cccc3[nH]ccc23)cc1 | > 100000 nM | 1300 nM | > 100000 nM | 0 |  | 
3 | CS(=O)(=O)Nc1ccc(OC[C@@H](O)CNCCc2ccc(NC(=O)Cc3ccccn3)cc2)cc1 | > 100000 nM | > 100000 nM | > 100000 nM | 0.01 |  | 
4 | O=C(Cc1ccccn1)Nc1ccc(CCNC[C@H](O)COc2cccc3[nH]c(=O)[nH]c23)cc1 | > 100000 nM |  |  |  |  | 
5 | O=C(Cc1nccn1Cc1ccccc1)Nc1ccc(CCNC[C@H](O)COc2ccccc2)cc1 | > 100000 nM | 180 nM | 130 nM | 0.2 |  | 43%
6 | CN(C(=O)Cc1nccn1Cc1ccccc1)c1ccc(CCNC[C@H](O)COc2ccccc2)cc1 | > 100000 nM | 280 nM | > 100000 nM | 0.04 |  | 38%
7 | CCCN(C(=O)Cc1nccn1Cc1ccccc1)c1ccc(CCNC[C@H](O)COc2ccccc2)cc1 | > 100000 nM | 500 nM | > 100000 nM | 0.01 |  | 
8 | O=C(Cc1nccn1Cc1ccc(Br)cc1)Nc1ccc(CCNC[C@H](O)COc2ccccc2)cc1 | > 100000 nM | 190 nM | 71 nM | 0.3 |  | 
9 | O=C(Cc1nccn1Cc1ccc(Cl)cc1)Nc1ccc(CCNC[C@H](O)COc2ccccc2)cc1 | > 100000 nM | 270 nM | 74 nM | 0.13 |  | 
10 | O=C(Cc1nc2ccccc2n1Cc1ccccc1)Nc1ccc(CCNC[C@H](O)COc2ccccc2)cc1 | > 100000 nM |  |  |  |  | 
11 | CC(Cc1ccc(NC(=O)Cc2nccn2Cc2ccccc2)cc1)NC[C@H](O)COc1ccccc1 (stereo in doubt; 27b) | > 100000 nM |  |  |  |  | 
12 | O=C(Cc1ccccn1)Nc1ccc(CCNC[C@H](O)COc2cccc3[nH]c4ccccc4c23)cc1 | > 100000 nM |  |  |  |  | 
13 | O=C(Cc1nccn1Cc1ccccc1)N1CCCc2cc(CCNC[C@H](O)COc3ccccc3)ccc21 | > 100000 nM |  |  |  |  | 
14 | CC(Cc1ccc(NC(=O)Cc2nccn2Cc2ccccc2)cc1)NC[C@H](O)COc1ccccc1 (single isomer, unassigned; diastereomer I) | 27 nM |  |  |  |  | 

More lines, main results first:

Row | EC50 [1] | EC50 [2] | EC50 [3] | Intrinsic activity [4] | bioavailability [6] | SMILES | Activity [5]
15 | > 100000 nM |  |  |  |  | O=C(Cc1cn(Cc2ccccc2)cn1)Nc1ccc(CCNC[C@H](O)COc2ccccc2)cc1 | 
16 | > 100000 nM | 2500 nM | 200 nM | 0.12 |  | O=C(Cc1cccc(OCc2ccccc2)n1)Nc1ccc(CCNC[C@H](O)COc2ccccc2)cc1 | 
17 | > 100000 nM | 330 nM | 390 nM | 0.18 |  | Cc1cccnc1CC(=O)Nc1ccc(CCNC[C@H](O)COc2ccccc2)cc1 | 
18 | > 100000 nM |  |  |  |  | O=C(Cc1cccc(Cl)n1)Nc1ccc(CCNC[C@H](O)COc2ccccc2)cc1 | 
19 | > 100000 nM | 9600 nM | 510 nM | 0.26 |  | O=C(Cc1ncc[nH]1)Nc1ccc(CCNC[C@H](O)COc2ccccc2)cc1 | 
20 | > 100000 nM | 290 nM | 2700 nM | 0.14 | 2% | O=C(Cc1ccccn1)Nc1ccc(CCNC[C@H](O)COc2ccc(O)cc2)cc1 | 
21 | > 100000 nM | 120000 nM | > 100000 nM | 0.11 | 27% | O=C(Cc1ccccn1)Nc1ccc(CCNC[C@H](O)COc2ccccc2)cc1 | 
22 | > 100000 nM |  |  |  |  | O=C(Cc1nccn1-c1ccccc1)Nc1ccc(CCNC[C@H](O)COc2ccccc2)cc1 | 
23 | > 100000 nM | 280 nM | 310 nM | 0.17 |  | Cc1cc(C)nc(CC(=O)Nc2ccc(CCNC[C@H](O)COc3ccccc3)cc2)c1 | 
24 | > 100000 nM |  |  |  |  | O=C(Cc1ccccn1)Nc1ccc(CCNC[C@H](O)COc2cccnc2)cc1 | 
